The record followed here is ChEMBL document CHEMBL4813994, “Discovery of novel and potent PARP/PI3K dual inhibitors for the treatment of cancer” (Eur J Med Chem, 2021).

pIC50: −log10 of the molar value.

One experiment deals with Poly [ADP-ribose] polymerase 1 (Homo sapiens, UniProt P09874). Briefly: Inhibition of PARP1 (unknown origin) using biotin-NAD+ as substrate incubated for 1 hr by ELISA.
Poly [ADP-ribose] polymerase 1, sequence (P09874 whole entry): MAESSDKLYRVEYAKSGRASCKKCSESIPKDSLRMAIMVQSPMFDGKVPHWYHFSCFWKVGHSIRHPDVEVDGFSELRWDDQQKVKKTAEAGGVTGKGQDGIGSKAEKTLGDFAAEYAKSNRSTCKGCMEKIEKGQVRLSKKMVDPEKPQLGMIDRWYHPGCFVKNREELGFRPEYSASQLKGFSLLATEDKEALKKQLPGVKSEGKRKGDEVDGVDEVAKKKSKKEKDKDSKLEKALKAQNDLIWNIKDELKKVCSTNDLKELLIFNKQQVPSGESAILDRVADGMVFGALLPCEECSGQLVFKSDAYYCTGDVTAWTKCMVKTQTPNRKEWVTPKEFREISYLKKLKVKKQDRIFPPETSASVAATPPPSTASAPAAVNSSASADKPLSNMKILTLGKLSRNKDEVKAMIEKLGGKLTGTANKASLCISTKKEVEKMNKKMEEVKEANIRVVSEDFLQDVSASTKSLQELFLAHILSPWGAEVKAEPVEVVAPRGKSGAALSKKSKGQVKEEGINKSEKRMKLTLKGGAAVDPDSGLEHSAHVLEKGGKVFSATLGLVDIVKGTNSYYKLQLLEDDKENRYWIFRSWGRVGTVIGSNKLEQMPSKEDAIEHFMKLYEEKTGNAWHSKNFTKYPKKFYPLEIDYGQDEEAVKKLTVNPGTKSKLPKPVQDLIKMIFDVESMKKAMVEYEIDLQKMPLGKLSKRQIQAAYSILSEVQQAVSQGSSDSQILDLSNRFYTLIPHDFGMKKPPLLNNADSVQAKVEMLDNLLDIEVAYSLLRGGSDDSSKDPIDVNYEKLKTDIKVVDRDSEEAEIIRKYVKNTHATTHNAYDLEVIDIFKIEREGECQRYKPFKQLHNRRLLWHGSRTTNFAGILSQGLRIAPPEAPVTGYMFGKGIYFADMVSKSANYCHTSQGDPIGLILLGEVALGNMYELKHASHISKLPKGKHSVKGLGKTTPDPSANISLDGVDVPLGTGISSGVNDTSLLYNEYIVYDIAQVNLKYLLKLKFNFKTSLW
Settings: not given
(In general: ELISA stands for enzyme-linked immunosorbent assay.)
Regarding `Cc1c(CN2CCN(C(=O)c3cc4cccc(C(N)=O)c4o3)CC2)sc2c(N3CCOCC3)nc(-c3ccc4[nH]ccc4c3)nc12`, the negative-log IC50 (pIC50) was 7.50.

For the compound `Nc1ncc(-c2nc(N3CCOCC3)c3sc(CN4CCN(C(=O)c5cc(Cc6n[nH]c(=O)c7ccccc67)ccc5F)CC4)cc3n2)cn1`, the negative-log IC50 (pIC50) is 8.06.

In turn, `Cc1c(CN2CCN(C(=O)c3cc4cccc(C(N)=O)c4o3)CC2)sc2c(N3CCOCC3)nc(-c3cccc4[nH]ccc34)nc12` showed a pIC50 of 6.85.

As to `Cc1c(CN2CCN(C(=O)c3cc4cccc(C(N)=O)c4o3)CC2)sc2c(N3CCOCC3)nc(-c3ccc(F)c(N)c3)nc12`, the pIC50 was 7.78.

In turn, `Cc1c(CN2CCN(C(=O)c3cc4cccc(C(N)=O)c4o3)CC2)sc2c(N3CCOCC3)nc(-c3cccc4[nH]ncc34)nc12` had a pIC50 of 7.37.

`Cc1c(CN2CCN(C(=O)c3cc(Cc4n[nH]c(=O)c5ccccc45)ccc3F)CC2)sc2c(N3CCOCC3)nc(-c3cnc(N)nc3)nc12` showed a pIC50 of 8.82.

`Cc1c(CN2CCN(C(=O)c3cc4cccc(C(N)=O)c4o3)CC2)sc2c(N3CCOCC3)nc(-c3ccc(N)nc3)nc12`: the pIC50 was 8.72.

On to `Cc1c(CN2CCN(C(=O)c3cc4cccc(C(N)=O)c4o3)CC2)sc2c(N3CCOCC3)nc(-c3ccc(N)c(F)c3)nc12`, for which the pIC50 is 8.04.

The target of the next experiment is Phosphatidylinositol 4,5-bisphosphate 3-kinase catalytic subunit alpha isoform (Homo sapiens, UniProt P42336). Briefly: Inhibition of PI3Kalpha (unknown origin) using PIP2 as substrate measured after 40 mins by ADP-glo plus luminescence assay.
Phosphatidylinositol 4,5-bisphosphate 3-kinase catalytic subunit alpha isoform, sequence (P42336 whole entry, canonical isoform): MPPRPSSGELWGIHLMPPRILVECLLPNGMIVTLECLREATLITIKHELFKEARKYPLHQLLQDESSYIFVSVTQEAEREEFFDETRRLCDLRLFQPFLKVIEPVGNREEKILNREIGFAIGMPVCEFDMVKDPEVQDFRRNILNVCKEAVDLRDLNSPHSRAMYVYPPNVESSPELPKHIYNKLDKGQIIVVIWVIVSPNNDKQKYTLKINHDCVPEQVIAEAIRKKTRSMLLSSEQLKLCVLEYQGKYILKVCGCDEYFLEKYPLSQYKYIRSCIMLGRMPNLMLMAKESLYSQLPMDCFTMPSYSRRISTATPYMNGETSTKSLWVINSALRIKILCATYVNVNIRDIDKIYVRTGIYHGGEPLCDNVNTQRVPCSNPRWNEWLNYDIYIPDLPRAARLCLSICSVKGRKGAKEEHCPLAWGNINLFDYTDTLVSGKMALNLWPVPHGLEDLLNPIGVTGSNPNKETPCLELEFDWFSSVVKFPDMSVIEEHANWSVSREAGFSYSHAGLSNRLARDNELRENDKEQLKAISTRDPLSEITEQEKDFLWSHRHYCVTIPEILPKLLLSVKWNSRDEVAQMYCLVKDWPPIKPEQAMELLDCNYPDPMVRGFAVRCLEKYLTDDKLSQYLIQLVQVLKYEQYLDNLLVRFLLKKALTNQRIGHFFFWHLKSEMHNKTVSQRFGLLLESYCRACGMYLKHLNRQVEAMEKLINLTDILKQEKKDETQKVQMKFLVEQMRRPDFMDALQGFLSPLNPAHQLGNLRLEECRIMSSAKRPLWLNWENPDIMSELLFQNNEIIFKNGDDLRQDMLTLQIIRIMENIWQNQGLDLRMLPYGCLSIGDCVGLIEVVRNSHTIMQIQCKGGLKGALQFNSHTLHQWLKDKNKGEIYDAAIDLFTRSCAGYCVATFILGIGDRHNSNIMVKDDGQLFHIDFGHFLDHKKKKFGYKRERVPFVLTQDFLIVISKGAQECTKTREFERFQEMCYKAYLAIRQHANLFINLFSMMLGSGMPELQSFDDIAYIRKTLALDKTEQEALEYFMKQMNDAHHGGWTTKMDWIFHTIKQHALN
Settings: not given
(In general: ADP-Glo first removes unused ATP, then detects ADP through luciferase.)
Regarding `Nc1ncc(-c2nc(N3CCOCC3)c3sc(CN4CCN(C(=O)c5cc(Cc6n[nH]c(=O)c7ccccc67)ccc5F)CC4)cc3n2)cn1`, the pIC50 is 8.43.

Consider `Cc1c(CN2CCN(C(=O)c3cc4cccc(C(N)=O)c4o3)CC2)sc2c(N3CCOCC3)nc(-c3cccc4[nH]ccc34)nc12`, for which the pIC50 was 5.94.

With `Cc1c(CN2CCN(C(=O)c3cc4cccc(C(N)=O)c4o3)CC2)sc2c(N3CCOCC3)nc(-c3ccc(F)c(N)c3)nc12`, the pIC50 was 5.86.

With `Cc1c(CN2CCN(C(=O)c3cc4cccc(C(N)=O)c4o3)CC2)sc2c(N3CCOCC3)nc(-c3cccc4[nH]ncc34)nc12`, the pIC50 is 6.77.

As for `Cc1c(CN2CCN(C(=O)c3cc(Cc4n[nH]c(=O)c5ccccc45)ccc3F)CC2)sc2c(N3CCOCC3)nc(-c3cnc(N)nc3)nc12`, the pIC50 was 8.70.

For `Cc1c(CN2CCN(C(=O)c3cc4cccc(C(N)=O)c4o3)CC2)sc2c(N3CCOCC3)nc(-c3ccc(N)nc3)nc12`, the pIC50 is 7.85.

On to `Cc1c(CN2CCN(C(=O)c3cc4cccc(C(N)=O)c4o3)CC2)sc2c(N3CCOCC3)nc(-c3ccc(N)c(F)c3)nc12`, for which the pIC50 was 5.93.

A further experiment concerns HCT-116. Briefly: Antiproliferative activity against human BRCA-2 deficient HCT-116 cells assessed as reduction in cell growth incubated for 7 days by cell titer-glo assay. The class given is functional, cell-based. The conditions noted are these: HCT-116, 168 h.
As to `Cc1c(CN2CCN(C(=O)c3cc4cccc(C(N)=O)c4o3)CC2)sc2c(N3CCOCC3)nc(-c3ccc(F)c(N)c3)nc12`, the pIC50 was 5.23.

Consider `Cc1c(CN2CCN(C(=O)c3cc4cccc(C(N)=O)c4o3)CC2)sc2c(N3CCOCC3)nc(-c3cccc4[nH]ncc34)nc12`, for which the pIC50 was 6.05.

As to `Cc1c(CN2CCN(C(=O)c3cc(Cc4n[nH]c(=O)c5ccccc45)ccc3F)CC2)sc2c(N3CCOCC3)nc(-c3cnc(N)nc3)nc12`, the pIC50 is 6.51.

In the case of `Cc1c(CN2CCN(C(=O)c3cc4cccc(C(N)=O)c4o3)CC2)sc2c(N3CCOCC3)nc(-c3ccc(N)c(F)c3)nc12`, the pIC50 was 5.63.

A further experiment has as its system SW-620. Briefly: Antiproliferative activity against human BRCA-2 proficient SW-620 cells assessed as reduction in cell growth incubated for 7 days by cell titer-glo assay. The class given is functional, cell-based. The settings on record: SW-620, 168 h. (Cellular ATP, detected with luciferase, serves as a proxy for viable cell number.)
`Cc1c(CN2CCN(C(=O)c3cc4cccc(C(N)=O)c4o3)CC2)sc2c(N3CCOCC3)nc(-c3ccc(F)c(N)c3)nc12`: the pIC50 is < 5.00.

On to `Cc1c(CN2CCN(C(=O)c3cc4cccc(C(N)=O)c4o3)CC2)sc2c(N3CCOCC3)nc(-c3cccc4[nH]ncc34)nc12`, for which the negative-log IC50 (pIC50) was 5.48.

Regarding `Cc1c(CN2CCN(C(=O)c3cc(Cc4n[nH]c(=O)c5ccccc45)ccc3F)CC2)sc2c(N3CCOCC3)nc(-c3cnc(N)nc3)nc12`, the negative-log IC50 (pIC50) is 6.04.

With `Cc1c(CN2CCN(C(=O)c3cc4cccc(C(N)=O)c4o3)CC2)sc2c(N3CCOCC3)nc(-c3ccc(N)c(F)c3)nc12`, the pIC50 is < 5.00.

For another experiment, the system named is HCC1937. Briefly: Antiproliferative activity against human BRCA-1 deficient HCC1937 cells assessed as reduction in cell growth incubated for 7 days by cell titer-glo assay. The settings on record: HCC1937, 168 h. The experiment is classed as functional, cell-based.
Turning to `Cc1c(CN2CCN(C(=O)c3cc4cccc(C(N)=O)c4o3)CC2)sc2c(N3CCOCC3)nc(-c3ccc(F)c(N)c3)nc12`, the pIC50 was 5.27.

With `Cc1c(CN2CCN(C(=O)c3cc4cccc(C(N)=O)c4o3)CC2)sc2c(N3CCOCC3)nc(-c3cccc4[nH]ncc34)nc12`, the pIC50 is 6.10.

For `Cc1c(CN2CCN(C(=O)c3cc(Cc4n[nH]c(=O)c5ccccc45)ccc3F)CC2)sc2c(N3CCOCC3)nc(-c3cnc(N)nc3)nc12`, the pIC50 is 6.39.

For `Cc1c(CN2CCN(C(=O)c3cc4cccc(C(N)=O)c4o3)CC2)sc2c(N3CCOCC3)nc(-c3ccc(N)c(F)c3)nc12`, the pIC50 was 5.41.

A further experiment deals with MDA-MB-231. Briefly: Antiproliferative activity against human BRCA proficient MDA-MB-231 cells assessed as reduction in cell growth incubated for 7 days by cell titer-glo assay. The class given is functional, cell-based. The conditions noted are these: MDA-MB-231, 168 h.
With `Cc1c(CN2CCN(C(=O)c3cc4cccc(C(N)=O)c4o3)CC2)sc2c(N3CCOCC3)nc(-c3ccc(F)c(N)c3)nc12`, the pIC50 is < 5.00.

As to `Cc1c(CN2CCN(C(=O)c3cc4cccc(C(N)=O)c4o3)CC2)sc2c(N3CCOCC3)nc(-c3cccc4[nH]ncc34)nc12`, the pIC50 is 5.48.

As for `Cc1c(CN2CCN(C(=O)c3cc(Cc4n[nH]c(=O)c5ccccc45)ccc3F)CC2)sc2c(N3CCOCC3)nc(-c3cnc(N)nc3)nc12`, the pIC50 was 5.89.

Turning to `Cc1c(CN2CCN(C(=O)c3cc4cccc(C(N)=O)c4o3)CC2)sc2c(N3CCOCC3)nc(-c3ccc(N)c(F)c3)nc12`, the pIC50 is < 5.00.

In a further experiment the test system is MDA-MB-468. Briefly: Antiproliferative activity against human BRCA proficient MDA-MB-468 cells assessed as reduction in cell growth incubated for 7 days by cell titer-glo assay. The experiment is classed as functional, cell-based. The settings on record: MDA-MB-468, 168 h.
Turning to `Cc1c(CN2CCN(C(=O)c3cc4cccc(C(N)=O)c4o3)CC2)sc2c(N3CCOCC3)nc(-c3ccc(F)c(N)c3)nc12`, the negative-log IC50 (pIC50) was < 5.00.

Take `Cc1c(CN2CCN(C(=O)c3cc4cccc(C(N)=O)c4o3)CC2)sc2c(N3CCOCC3)nc(-c3cccc4[nH]ncc34)nc12`: the pIC50 was < 5.00.

For `Cc1c(CN2CCN(C(=O)c3cc(Cc4n[nH]c(=O)c5ccccc45)ccc3F)CC2)sc2c(N3CCOCC3)nc(-c3cnc(N)nc3)nc12`, the pIC50 was 5.97.

In the case of `Cc1c(CN2CCN(C(=O)c3cc4cccc(C(N)=O)c4o3)CC2)sc2c(N3CCOCC3)nc(-c3ccc(N)c(F)c3)nc12`, the pIC50 was < 5.00.

The next experiment deals with Poly [ADP-ribose] polymerase 2 (Homo sapiens, UniProt Q9UGN5). Briefly: Inhibition of PARP2 (unknown origin) using biotin-NAD+ as substrate incubated for 1 hr by ELISA.
Settings: not given
`Cc1c(CN2CCN(C(=O)c3cc(Cc4n[nH]c(=O)c5ccccc45)ccc3F)CC2)sc2c(N3CCOCC3)nc(-c3cnc(N)nc3)nc12` had a pIC50 of 9.05.

The next experiment deals with Phosphatidylinositol 4,5-bisphosphate 3-kinase catalytic subunit beta isoform (Homo sapiens, UniProt P42338). Briefly: Inhibition of PI3Kbeta (unknown origin) using PIP2 as substrate measured after 1 hr by ADP-glo plus luminescence assay.
Phosphatidylinositol 4,5-bisphosphate 3-kinase catalytic subunit beta isoform, sequence (P42338 whole entry, canonical isoform): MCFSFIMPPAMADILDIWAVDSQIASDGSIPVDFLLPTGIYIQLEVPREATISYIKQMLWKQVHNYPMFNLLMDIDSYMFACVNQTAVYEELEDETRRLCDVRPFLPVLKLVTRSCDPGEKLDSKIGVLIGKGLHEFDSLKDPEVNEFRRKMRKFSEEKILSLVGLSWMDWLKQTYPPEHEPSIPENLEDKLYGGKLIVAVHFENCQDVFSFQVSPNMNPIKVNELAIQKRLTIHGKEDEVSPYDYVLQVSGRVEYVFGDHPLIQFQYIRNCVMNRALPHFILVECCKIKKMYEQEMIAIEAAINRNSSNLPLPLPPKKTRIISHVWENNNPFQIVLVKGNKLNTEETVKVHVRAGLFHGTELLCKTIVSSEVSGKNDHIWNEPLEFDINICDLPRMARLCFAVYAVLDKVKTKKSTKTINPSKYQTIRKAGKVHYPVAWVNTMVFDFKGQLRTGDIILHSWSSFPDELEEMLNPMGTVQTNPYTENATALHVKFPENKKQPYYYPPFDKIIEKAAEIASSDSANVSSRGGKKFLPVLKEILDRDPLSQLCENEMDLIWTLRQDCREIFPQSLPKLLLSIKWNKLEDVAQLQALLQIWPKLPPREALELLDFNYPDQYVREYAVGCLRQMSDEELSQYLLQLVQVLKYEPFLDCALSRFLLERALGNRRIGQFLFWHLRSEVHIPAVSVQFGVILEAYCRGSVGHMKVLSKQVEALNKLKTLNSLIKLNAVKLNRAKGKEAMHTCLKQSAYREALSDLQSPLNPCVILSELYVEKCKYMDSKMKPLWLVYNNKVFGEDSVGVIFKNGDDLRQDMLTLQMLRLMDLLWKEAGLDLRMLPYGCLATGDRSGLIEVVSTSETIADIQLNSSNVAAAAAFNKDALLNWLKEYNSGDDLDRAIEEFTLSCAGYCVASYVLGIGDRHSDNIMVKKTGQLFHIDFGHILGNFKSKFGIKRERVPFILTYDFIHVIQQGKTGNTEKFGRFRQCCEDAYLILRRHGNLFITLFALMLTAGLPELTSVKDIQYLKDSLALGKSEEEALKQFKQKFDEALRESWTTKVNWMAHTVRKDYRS
Settings: not given
In the case of `Cc1c(CN2CCN(C(=O)c3cc(Cc4n[nH]c(=O)c5ccccc45)ccc3F)CC2)sc2c(N3CCOCC3)nc(-c3cnc(N)nc3)nc12`, the pIC50 was 7.28.

Another experiment deals with Phosphatidylinositol 4,5-bisphosphate 3-kinase catalytic subunit gamma isoform (Homo sapiens, UniProt P48736). Briefly: Inhibition of PI3Kgamma (unknown origin) using PIP2 as substrate measured after 1 hr by ADP-glo plus luminescence assay.
Phosphatidylinositol 4,5-bisphosphate 3-kinase catalytic subunit gamma isoform, sequence (P48736 whole entry, canonical isoform): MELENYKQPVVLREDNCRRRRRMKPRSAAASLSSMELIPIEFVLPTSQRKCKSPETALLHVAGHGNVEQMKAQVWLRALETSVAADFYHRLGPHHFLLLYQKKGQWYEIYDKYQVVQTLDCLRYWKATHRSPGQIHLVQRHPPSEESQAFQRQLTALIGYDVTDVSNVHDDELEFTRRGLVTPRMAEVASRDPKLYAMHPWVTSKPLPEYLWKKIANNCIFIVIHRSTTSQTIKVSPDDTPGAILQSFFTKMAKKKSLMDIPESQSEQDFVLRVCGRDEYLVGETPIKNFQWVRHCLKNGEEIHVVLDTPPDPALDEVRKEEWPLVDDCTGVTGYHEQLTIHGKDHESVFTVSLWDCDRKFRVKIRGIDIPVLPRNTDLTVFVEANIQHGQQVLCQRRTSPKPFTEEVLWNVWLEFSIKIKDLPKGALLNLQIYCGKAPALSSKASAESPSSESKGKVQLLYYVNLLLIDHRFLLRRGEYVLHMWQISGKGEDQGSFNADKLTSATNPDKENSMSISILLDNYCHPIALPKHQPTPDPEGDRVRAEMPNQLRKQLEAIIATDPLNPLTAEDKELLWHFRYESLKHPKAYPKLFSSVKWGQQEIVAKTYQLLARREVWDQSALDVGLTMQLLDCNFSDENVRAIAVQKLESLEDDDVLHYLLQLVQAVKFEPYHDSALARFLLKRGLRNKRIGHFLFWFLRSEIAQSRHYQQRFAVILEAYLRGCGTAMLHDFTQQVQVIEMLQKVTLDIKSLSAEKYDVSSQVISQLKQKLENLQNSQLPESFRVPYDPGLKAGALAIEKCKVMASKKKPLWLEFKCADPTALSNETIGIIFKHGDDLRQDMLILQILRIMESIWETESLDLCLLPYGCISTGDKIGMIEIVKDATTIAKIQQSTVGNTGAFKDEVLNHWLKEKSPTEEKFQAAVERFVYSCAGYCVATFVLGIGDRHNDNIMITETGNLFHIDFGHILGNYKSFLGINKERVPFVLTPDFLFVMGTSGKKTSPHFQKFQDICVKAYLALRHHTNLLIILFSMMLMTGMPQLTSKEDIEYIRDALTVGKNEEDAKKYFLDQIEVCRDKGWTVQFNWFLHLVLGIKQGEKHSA
Settings: not given
Consider `Cc1c(CN2CCN(C(=O)c3cc(Cc4n[nH]c(=O)c5ccccc45)ccc3F)CC2)sc2c(N3CCOCC3)nc(-c3cnc(N)nc3)nc12`, for which the pIC50 was 7.60.

The target in the next experiment is T1, Phosphatidylinositol 4,5-bisphosphate 3-kinase catalytic subunit delta isoform (Homo sapiens, UniProt O00329).
T1 sequence (O00329 whole entry): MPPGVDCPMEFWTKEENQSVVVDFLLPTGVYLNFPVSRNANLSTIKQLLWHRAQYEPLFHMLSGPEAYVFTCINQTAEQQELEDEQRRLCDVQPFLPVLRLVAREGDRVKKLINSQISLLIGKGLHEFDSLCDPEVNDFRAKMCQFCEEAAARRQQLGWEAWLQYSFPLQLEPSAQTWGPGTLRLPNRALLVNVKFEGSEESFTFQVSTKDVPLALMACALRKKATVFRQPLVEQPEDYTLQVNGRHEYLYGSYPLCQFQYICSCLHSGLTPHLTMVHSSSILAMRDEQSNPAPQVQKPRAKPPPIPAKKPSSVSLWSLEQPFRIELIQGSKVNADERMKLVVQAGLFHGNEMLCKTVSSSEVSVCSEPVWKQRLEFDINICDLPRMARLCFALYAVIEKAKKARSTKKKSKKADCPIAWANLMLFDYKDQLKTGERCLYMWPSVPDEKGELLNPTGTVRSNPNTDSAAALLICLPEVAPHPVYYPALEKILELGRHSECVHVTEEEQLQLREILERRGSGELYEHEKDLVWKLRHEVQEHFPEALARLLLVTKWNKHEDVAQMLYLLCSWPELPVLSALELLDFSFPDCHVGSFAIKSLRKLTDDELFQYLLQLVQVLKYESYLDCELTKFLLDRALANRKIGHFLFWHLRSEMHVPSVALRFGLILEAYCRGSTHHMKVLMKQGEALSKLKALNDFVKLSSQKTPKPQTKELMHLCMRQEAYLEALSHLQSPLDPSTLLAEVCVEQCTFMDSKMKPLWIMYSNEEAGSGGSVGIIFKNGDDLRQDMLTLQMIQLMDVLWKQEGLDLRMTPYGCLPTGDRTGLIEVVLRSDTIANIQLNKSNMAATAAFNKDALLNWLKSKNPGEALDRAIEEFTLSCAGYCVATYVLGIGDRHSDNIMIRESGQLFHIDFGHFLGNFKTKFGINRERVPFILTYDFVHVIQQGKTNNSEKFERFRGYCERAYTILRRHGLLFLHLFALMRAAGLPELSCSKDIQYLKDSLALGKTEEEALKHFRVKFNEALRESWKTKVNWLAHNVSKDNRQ
Briefly: Inhibition of PI3Kdelta (unknown origin) using PIP2 as substrate measured after 2 hrs by ADP-glo plus luminescence assay.
Settings: not given
`Cc1c(CN2CCN(C(=O)c3cc(Cc4n[nH]c(=O)c5ccccc45)ccc3F)CC2)sc2c(N3CCOCC3)nc(-c3cnc(N)nc3)nc12`: the pIC50 was 8.17.

The next experiment deals with RAC-alpha serine/threonine-protein kinase (Homo sapiens, UniProt P31749). Briefly: Inhibition of AKT (unknown origin).
RAC-alpha serine/threonine-protein kinase, sequence (P31749 whole entry): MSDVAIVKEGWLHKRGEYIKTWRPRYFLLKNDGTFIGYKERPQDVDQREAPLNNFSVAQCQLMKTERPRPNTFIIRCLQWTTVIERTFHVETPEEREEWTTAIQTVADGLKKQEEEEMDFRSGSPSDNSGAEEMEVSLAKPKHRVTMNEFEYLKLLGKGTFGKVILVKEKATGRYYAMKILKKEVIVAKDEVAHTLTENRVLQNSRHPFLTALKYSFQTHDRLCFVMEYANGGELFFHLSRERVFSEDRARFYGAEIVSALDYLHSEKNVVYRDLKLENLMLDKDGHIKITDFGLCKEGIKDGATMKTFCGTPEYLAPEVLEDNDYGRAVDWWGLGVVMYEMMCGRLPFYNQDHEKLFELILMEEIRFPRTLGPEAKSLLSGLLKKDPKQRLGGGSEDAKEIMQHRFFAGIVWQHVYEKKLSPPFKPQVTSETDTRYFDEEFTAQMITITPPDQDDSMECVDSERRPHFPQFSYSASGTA
Settings: not given
Consider `Cc1c(CN2CCN(C(=O)c3cc(Cc4n[nH]c(=O)c5ccccc45)ccc3F)CC2)sc2c(N3CCOCC3)nc(-c3cnc(N)nc3)nc12`, for which the pIC50 is < 4.00.

The target of the next experiment is Serine/threonine-protein kinase mTOR (Homo sapiens, UniProt P42345). Briefly: Inhibition of mTOR (unknown origin).
Settings: not given
In turn, `Cc1c(CN2CCN(C(=O)c3cc(Cc4n[nH]c(=O)c5ccccc45)ccc3F)CC2)sc2c(N3CCOCC3)nc(-c3cnc(N)nc3)nc12` had a pIC50 of 7.30.

The test system of another experiment is MDA-MB-468. Briefly: Antitumor activity against human MDA-MB-468 cells xenografted in BALB/c mouse assessed as tumor growth inhibition at 20 mg/kg, ip once daily administered for 32 days relative to control. The conditions noted are these: MDA-MB-468, ip, 768 h, time 32 day, read-out: TGI. The class given is functional.
As for `Cc1c(CN2CCN(C(=O)c3cc(Cc4n[nH]c(=O)c5ccccc45)ccc3F)CC2)sc2c(N3CCOCC3)nc(-c3cnc(N)nc3)nc12`, the inhibition in vivo at 20 mg/kg turned out to be 56.4%.

Broadly, the pIC50 is the negative decadic logarithm of the IC50, by convention in mol/L.
